Laboratory results from patent publication US9630984B2, “Compound contained in manuka honey and use of same” (HEALTHCARE SYSTEMS, priority 2011, dated 2017).

Molecular target: T1, human MPO (Homo sapiens, UniProt P05164)
T1 sequence (P05164 49-745): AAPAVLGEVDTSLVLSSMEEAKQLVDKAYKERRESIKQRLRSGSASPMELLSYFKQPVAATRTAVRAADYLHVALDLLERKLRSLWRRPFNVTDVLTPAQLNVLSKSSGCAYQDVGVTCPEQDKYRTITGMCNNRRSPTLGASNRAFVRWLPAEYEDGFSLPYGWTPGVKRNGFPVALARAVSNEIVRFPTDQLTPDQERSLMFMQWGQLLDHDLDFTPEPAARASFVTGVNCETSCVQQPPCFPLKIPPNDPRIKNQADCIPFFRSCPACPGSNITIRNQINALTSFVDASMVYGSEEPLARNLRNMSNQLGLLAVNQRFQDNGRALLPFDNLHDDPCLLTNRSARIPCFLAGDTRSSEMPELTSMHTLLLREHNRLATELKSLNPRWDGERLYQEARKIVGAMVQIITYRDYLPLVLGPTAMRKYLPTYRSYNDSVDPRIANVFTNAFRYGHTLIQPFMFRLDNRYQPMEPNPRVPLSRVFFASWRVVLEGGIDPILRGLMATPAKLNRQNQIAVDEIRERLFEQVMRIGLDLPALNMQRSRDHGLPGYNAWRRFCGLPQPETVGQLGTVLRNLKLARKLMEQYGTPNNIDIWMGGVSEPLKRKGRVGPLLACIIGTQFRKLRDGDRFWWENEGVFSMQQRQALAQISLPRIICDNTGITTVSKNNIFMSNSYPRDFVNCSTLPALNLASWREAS
Assay: MPO inhibition activity: inhibition of halogenation of tyrosine residues of biotin-labeled BSA (ELISA with 3A5 antibody)
Format: biochemical
Details: sample prepared to 5 mM, 10 μl in about 110 μl reaction; 30 minutes at 37° C.; absorbancy 450 nm/550 nm
Procedure: The MPO inhibition activities of the isolated MGGD and its aglycon MSYR were measured by evaluating inhibition of the halogenation of the tyrosine residues of a biotin-labeled protein (bovine serum albumin). It is thus possible to measure either inhibition of the MPO enzyme itself or the ability to extinguish or capture hypobromous acid (HOBr) and other active species produced by the enzyme.
The necessary solutions and the like for the reaction were prepared as follows.
(2) Xanthine oxidase (XOD) (Sigma X4500-25UN) diluted 100× with water.
(4) Biotin-BSA (Sigma-A6043-10MG) dissolved to 1 mg/ml in 0.1 M phosphate buffer with 200 μM NaBr and 200 mM NaCl added in advance, then freeze dried for storage, and diluted to 0.4 mg/ml before use.
(5) Sample prepared to 5 mM.
(6) Reduced glutathione (GSH) (Sigma G-6529) as a positive control.
(7) L-methionine, dissolved in water to 10 mM. […]
50 μl of a 10 μg/ml concentration 3A5 antibody (Nikken Seil) recognizing dihalogenated tyrosines was coated as a primary antibody on each microplate, and left standing overnight at 4° C. […] This was then left standing again for 45 minutes at 37° C. and washed, after which 100 μl of a TMB (3,3′-5,5′-tetramethylbentidine) coloring reagent (A liquid/B liquid=1/1) was added, and absorbancy was measured at 450 nm/550 nm for about 10 minutes with a microplate reader.

MPO enzyme inhibition activity (halogenated tyrosine production vs control with no added antioxidant): exhibited MPO enzyme inhibition activity
SMILES: COC(=O)c1cc(OC)c(O[C@@H]2O[C@H](CO[C@@H]3O[C@H](CO)[C@@H](O)[C@H](O)[C@H]3O)[C@@H](O)[C@H](O)[C@H]2O)c(OC)c1 [MGGD, methyl-4-O-[β-D-glucopyranosyl-(1→6)-β-D-glucopyranosyl]-3,5-dimethoxybenzoate]
